Read-outs that look alike come from different tables or passages of the source. Positions of bridges follow the written chain, without caps; N, C: chain ends. Non-standard residues stand in square brackets, D forms with d. Residues, ends and D or L forms follow the SMILES beside them. Sec = N[C@@H](C[SeH])C(=O)O; Nle = CCCC[C@H](N)C(=O)O
What was measured:
conscious rabbits = experiment: Blood pressure and heart rate in conscious rabbits, intravenous infusion dose-response (Example 8)
[1] = biological target: T1, Natriuretic Peptide Receptor-A (NPR-A) signaling in MDCK cells (Canis lupus familiaris, UniProt A0A8I3MHU3); type: cell-based, canine; conditions: for EC50: read-out: EC50 (M) ± Standard Error
T1 sequence (A0A8I3MHU3 32-1060): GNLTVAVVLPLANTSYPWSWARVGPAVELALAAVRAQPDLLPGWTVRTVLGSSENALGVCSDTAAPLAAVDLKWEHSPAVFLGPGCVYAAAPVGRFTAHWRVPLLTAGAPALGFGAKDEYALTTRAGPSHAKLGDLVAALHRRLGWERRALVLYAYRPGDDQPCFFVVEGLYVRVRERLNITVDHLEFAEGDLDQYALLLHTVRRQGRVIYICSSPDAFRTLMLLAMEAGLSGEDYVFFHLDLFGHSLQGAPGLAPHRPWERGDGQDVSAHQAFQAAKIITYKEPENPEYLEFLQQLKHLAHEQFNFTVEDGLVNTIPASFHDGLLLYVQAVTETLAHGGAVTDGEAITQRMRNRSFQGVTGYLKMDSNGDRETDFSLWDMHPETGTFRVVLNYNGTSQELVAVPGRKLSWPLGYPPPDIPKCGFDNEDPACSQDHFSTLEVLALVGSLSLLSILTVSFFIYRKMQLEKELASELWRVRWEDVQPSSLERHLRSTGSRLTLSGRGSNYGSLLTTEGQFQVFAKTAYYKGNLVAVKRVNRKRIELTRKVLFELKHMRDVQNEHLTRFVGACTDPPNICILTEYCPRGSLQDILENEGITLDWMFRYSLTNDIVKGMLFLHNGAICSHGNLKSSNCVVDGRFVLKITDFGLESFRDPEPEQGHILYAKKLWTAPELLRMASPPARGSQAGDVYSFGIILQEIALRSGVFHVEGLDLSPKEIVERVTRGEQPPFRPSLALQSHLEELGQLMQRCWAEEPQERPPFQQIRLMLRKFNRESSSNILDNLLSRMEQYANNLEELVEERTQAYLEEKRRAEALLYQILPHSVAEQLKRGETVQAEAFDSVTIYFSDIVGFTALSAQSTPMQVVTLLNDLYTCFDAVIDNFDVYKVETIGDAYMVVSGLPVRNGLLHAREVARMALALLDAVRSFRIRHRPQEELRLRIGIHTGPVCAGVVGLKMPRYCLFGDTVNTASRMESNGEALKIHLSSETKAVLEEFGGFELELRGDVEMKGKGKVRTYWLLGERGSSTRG

[2] = after 1 hour recovery period, Table 10A
[3] = stimulation of cGMP accumulation in MDCK cells

| Compound | −Log10 EC50 (pEC50) ± Standard Error [1, 3] | EC50 [1, 3] [M] | further results |
| --- | --- | --- | --- |
| SDSKIGNGCFGFPLDHIGSVSGLGCNRIMQNPPKKFSGE (A portion of a natriuretic peptide) [TNPc R16H] | – | – | Recovery (MAP) (conscious rabbits; [2]): 67.6 mm Hg; Recovery Delta SED (MAP) (conscious rabbits; [2]): 2.0 ± 3.9 mm Hg; reduction of MAP compared to vehicle, in words (conscious rabbits; highest dose): did significantly reduce MAP; MAP at final dose (conscious rabbits; highest dose, Table 10A): 65.6 mm Hg; Treatment Effect, change of mean blood pressure during the infusion (conscious rabbits; highest dose, Table 10A, groups 1, 2A and 3): −7.3 mm Hg |
| CC[C@H](C)[C@@H]1NC(=O)[C@H](CCCNC(=N)N)NC(=O)[C@H](CC(=O)O)NC(=O)[C@H](CC(C)C)NC(=O)[C@@H]2CCCN2C(=O)[C@H](Cc2ccccc2)NC(=O)CNC(=O)[C@H](Cc2ccccc2)NC(=O)[C@@H](NC(=O)CNC(=O)[C@H](C)NC(=O)[C@H](CO)NC(=O)[C@@H](NC(=O)[C@H](CCCCN)NC(=O)[C@H](CO)NC(=O)[C@H](CC(=O)O)NC(=O)[C@@H](N)CO)[C@@H](C)CC)CSSC[C@@H](C(=O)N[C@@H](CC(N)=O)C(=O)N[C@@H](CCCNC(=N)N)C(=O)N[C@H](C(=O)N[C@@H](CCSC)C(=O)N[C@@H](CCC(N)=O)C(=O)N[C@@H](CC(N)=O)C(=O)N2CCC[C@H]2C(=O)N2CCC[C@H]2C(=O)N[C@@H](CCCCN)C(=O)N[C@@H](CCCCN)C(=O)N[C@@H](Cc2ccccc2)C(=O)N[C@@H](CO)C(=O)NCC(=O)N[C@@H](CCC(=O)O)C(=O)O)[C@@H](C)CC)NC(=O)CNC(=O)[C@H](CC(C)C)NC(=O)CNC(=O)[C@H](CO)NC(=O)[C@H](C(C)C)NC(=O)[C@H](CO)NC(=O)CNC1=O [Peptide A7S6-TNPc] (H-SDSKISAGCFGFPLDRIGSVSGLGCNRIMQNPPKKFSGE-OH; disulfide 9-25; N-terminus assumed) | 6.897 ± 0.2652 | 1.69e-07 | – |
| CCCC[C@H](NC(=O)[C@@H](NC(=O)[C@H](CCCNC(=N)N)NC(=O)[C@H](CC(N)=O)NC(=O)[C@@H]1CSSC[C@H](NC(=O)CNC(=O)[C@H](CC(N)=O)NC(=O)CNC(=O)[C@@H](NC(=O)[C@H](CCCCN)NC(=O)[C@H](CO)NC(=O)[C@H](CC(=O)O)NC(=O)[C@@H](N)CO)[C@@H](C)CC)C(=O)N[C@@H](Cc2ccccc2)C(=O)NCC(=O)N[C@@H](Cc2ccccc2)C(=O)N2CCC[C@H]2C(=O)N[C@@H](CC(C)C)C(=O)N[C@@H](CC(=O)O)C(=O)N[C@@H](CCCNC(=N)N)C(=O)N[C@@H]([C@@H](C)CC)C(=O)NCC(=O)N[C@@H](CO)C(=O)N[C@@H](C(C)C)C(=O)N[C@@H](CO)C(=O)NCC(=O)N[C@@H](CC(C)C)C(=O)NCC(=O)N1)[C@@H](C)CC)C(=O)N[C@@H](CCC(N)=O)C(=O)N[C@@H](CC(N)=O)C(=O)N1CCC[C@H]1C(=O)N1CCC[C@H]1C(=O)N[C@@H](CCCCN)C(=O)N[C@@H](CCCCN)C(=O)N[C@@H](Cc1ccccc1)C(=O)N[C@@H](CO)C(=O)NCC(=O)N[C@@H](CCC(=O)O)C(=O)O [Nle-TNPc] (H-SDSKIGNGCFGFPLDRIGSVSGLGCNRI[Nle]QNPPKKFSGE-OH; disulfide 9-25; N-terminus assumed) | 6.497 ± 0.2017 | 3.99e-07 | – |
| CC[C@H](C)[C@@H]1NC(=O)[C@H](CCCNC(=N)N)NC(=O)[C@H](CC(=O)O)NC(=O)[C@H]([C@@H](C)CC)NC(=O)[C@H](CCCCN)NC(=O)[C@H](Cc2c[nH]cn2)NC(=O)CNC(=O)[C@H](Cc2ccccc2)NC(=O)[C@@H](NC(=O)CNC(=O)[C@H](CC(=O)O)NC(=O)[C@@H]2CCCN2C(=O)[C@H](C)NC(=O)[C@H](CCCCN)NC(=O)[C@H](CCCCN)NC(=O)[C@H](CCCCN)NC(=O)[C@@H]2CCCN2C(=O)[C@@H]2CCCN2C(=O)[C@H](CCC(=O)O)NC(=O)[C@H](CC(N)=O)NC(=O)[C@H](CCC(=O)O)NC(=O)CN)CSSC[C@@H](C(=O)N[C@@H](CC(N)=O)C(=O)N[C@@H](CCCCN)C(=O)N[C@@H](Cc2ccccc2)C(=O)N[C@@H](CCCCN)C(=O)N2CCC[C@H]2C(=O)NCC(=O)N[C@@H](Cc2c[nH]cn2)C(=O)O)NC(=O)CNC(=O)[C@H](CC(C)C)NC(=O)CNC(=O)[C@H](CO)NC(=O)[C@H](Cc2c[nH]cn2)NC(=O)[C@H](CO)NC(=O)CNC1=O [PNP, reference compound] (H-GENEPPKKKAPDGCFGHKIDRIGSHSGLGCNKFKPGH-OH; disulfide 14-30) | 6.660 ± 0.4500 | 3.47e-07 | – |
| CC[C@H](C)[C@@H]1NC(=O)[C@H](CCCNC(=N)N)NC(=O)[C@H](CC(=O)O)NC(=O)[C@H](CC(C)C)NC(=O)[C@@H]2CCCN2C(=O)[C@H](Cc2ccccc2)NC(=O)CNC(=O)[C@H](Cc2ccccc2)NC(=O)[C@@H](NC(=O)CNC(=O)[C@H](CCCCN)NC(=O)[C@H](CO)NC(=O)[C@@H](NC(=O)[C@H](CCCCN)NC(=O)[C@H](CO)NC(=O)[C@H](CC(=O)O)NC(=O)[C@@H](N)CO)[C@@H](C)CC)CSSC[C@@H](C(=O)N[C@@H](CC(N)=O)C(=O)N[C@@H](CCCNC(=N)N)C(=O)N[C@H](C(=O)N[C@@H](CCSC)C(=O)N[C@@H](CCC(N)=O)C(=O)N[C@@H](CC(N)=O)C(=O)N2CCC[C@H]2C(=O)N2CCC[C@H]2C(=O)N[C@@H](CCCCN)C(=O)N[C@@H](CCCCN)C(=O)N[C@@H](Cc2ccccc2)C(=O)N[C@@H](CO)C(=O)NCC(=O)N[C@@H](CCC(=O)O)C(=O)O)[C@@H](C)CC)NC(=O)CNC(=O)[C@H](CC(C)C)NC(=O)CNC(=O)[C@H](CO)NC(=O)[C@H](C(C)C)NC(=O)[C@H](CO)NC(=O)CNC1=O [Peptide K7S6-TNPc] (H-SDSKISKGCFGFPLDRIGSVSGLGCNRIMQNPPKKFSGE-OH; disulfide 9-25; N-terminus assumed) | 7.567 ± 0.4397 | 5.24e-08 | – |
| CC[C@H](C)[C@H](NC(=O)[C@H](CCCCN)NC(=O)[C@H](CO)NC(=O)[C@H](CC(=O)O)NC(=O)[C@@H](N)CO)C(=O)NCC(=O)N[C@@H](CC(N)=O)C(=O)NCC(=O)N[C@H]1C[Se][Se]C[C@@H](C(=O)N[C@@H](CC(N)=O)C(=O)N[C@@H](CCCNC(=N)N)C(=O)N[C@H](C(=O)N[C@@H](CCSC)C(=O)N[C@@H](CCC(N)=O)C(=O)N[C@@H](CC(N)=O)C(=O)N2CCC[C@H]2C(=O)N2CCC[C@H]2C(=O)N[C@@H](CCCCN)C(=O)N[C@@H](CCCCN)C(=O)N[C@@H](Cc2ccccc2)C(=O)N[C@@H](CO)C(=O)NCC(=O)N[C@@H](CCC(=O)O)C(=O)O)[C@@H](C)CC)NC(=O)CNC(=O)[C@H](CC(C)C)NC(=O)CNC(=O)[C@H](CO)NC(=O)[C@H](C(C)C)NC(=O)[C@H](CO)NC(=O)CNC(=O)[C@H]([C@@H](C)CC)NC(=O)[C@H](CCCNC(=N)N)NC(=O)[C@H](CC(=O)O)NC(=O)[C@H](CC(C)C)NC(=O)[C@@H]2CCCN2C(=O)[C@H](Cc2ccccc2)NC(=O)CNC(=O)[C@H](Cc2ccccc2)NC1=O [Sec2-TNPc] (H-SDSKIGNG[Sec]FGFPLDRIGSVSGLG[Sec]NRIMQNPPKKFSGE-OH; diselenide 9-25) | – | – | −Log10 EC50 (pEC50) ± Standard Error [1]: 7.463 ± 0.4096; EC50 [1]: 6.39e-08 M |

Reference: patent US8058242B2, “Chimeric proteins with natriuretic activity” (The University of Queensland, priority 2004, dated 2011)
